Results on three compounds are retold here after patent US10342846B2, “Nanoparticle drug delivery systems” (University of Notre Dame du Lac, priority 2013, dated 2019).

The subject of data set [1] is NCI-H929 myeloma cells (VLA-4 expressing). The data set is described as follows: Cell-based peptide binding assay (NCI-H929). As to conditions: fluorescein labeled peptide, flow cytometry, read-out: apparent Kd. On the procedure: (§1) HER2 or VLA-4 Expression Analysis and Cell-Based Peptide Binding Assays. For antibody binding assays, cells were incubated with the primary antibody in binding buffer (1.5% BSA in PBS pH 7.4) on ice for 1 hour and were washed twice. Fluorescein conjugated secondary antibody was added for 1 hour on ice, samples were washed, and analyzed on Guava easyCyte 8HT flow cytometer (Millipore). For cell-based peptide binding assays, cells were incubated with increasing concentrations of fluorescein-conjugated peptides for 2 hours on ice. Samples were washed twice and analyzed on Guava easyCyte 8HT flow cytometer.
Receptor Expression Analysis and Cell-Based Peptide Binding Assays. For VLA-4 expression assays, cells were incubated with anti-CD49d (phycoerythrin) or anti-CD29 (fluorescein) antibodies (BD Biosciences, San Jose, Calif.) in binding buffer (1.5% BSA in PBS pH 7.4) on ice for 1 hour and were washed twice. For HER2 expression assays, cells were incubated with primary antibody in binding buffer on ice for 1 hour and washed twice. Fluorescein conjugated secondary antibody was added for 1 hour on ice, samples were washed, and analyzed on Guava easyCyte 8HT flow cytometer (Millipore). Isotype matched antibodies were used as negative controls. […] Samples were washed twice and analyzed on Guava easyCyte 8HT flow cytometer.
A general note: A flow cytometer gives signals particle by particle.

Data set [2] concerns VLA-4-overexpressing multiple myeloma cells. In words: In vitro nanoparticle uptake, result stated jointly for the myeloma lines. The settings on record: competition experiment, NCI-H929 and MM.1S. The data set is classed as cell-based. On the procedure:
In Vitro Liposome Uptake and Binding Assays. 1×10^5 cells/well were plated 24 hours prior to each experiment in a 24 well dish. Liposomes were added at 100 μM phospholipid concentration and incubated for 3 hours at 37° C. 0.2% fluorescein PE was added as a fluorescent marker to each liposomal formulation. For adherent cells, after incubation, cells were washed 3 times with PBS, trypsinized, and analyzed via flow cytometry. For suspension cells, after incubation, cells were washed 3 times with PBS and analyzed via flow cytometry. For binding assays, adherent cells were scraped from the surface of a confluent dish, placed in growth media, and incubated on ice for 30 minutes. Liposomes were added at variable concentrations and incubated for 2 hours on ice. After incubation, cells were washed 3 times with PBS and analyzed via flow cytometry.
In Vitro Nanoparticle Uptake Assays. 1×10^5 cells/well were plated 24 hours prior to each experiment in a 24 well dish. Nanoparticles were added at 100 μM phospholipid concentration and incubated for 3 hours at 37° C. […] For suspension cells, after incubation, cells were washed 3 times with PBS and analyzed via flow cytometry. For adherent cells, after incubation, cells were washed 3 times with PBS, trypsinized, and analyzed via flow cytometry.

The subject of data set [3] is MM.1S myeloma cells (VLA-4 expressing). In words: Cell-based peptide binding assay (MM.1S). The settings on record: fluorescein labeled peptide, MM.1S cells, flow cytometry; read-out: apparent Kd. On the procedure:
Receptor Expression Analysis and Cell-Based Peptide Binding Assays. For VLA-4 expression assays, cells were incubated with anti-CD49d (phycoerythrin) or anti-CD29 (fluorescein) antibodies (BD Biosciences, San Jose, Calif.) in binding buffer (1.5% BSA in PBS pH 7.4) on ice for 1 hour and were washed twice. For HER2 expression assays, cells were incubated with primary antibody in binding buffer on ice for 1 hour and washed twice. Fluorescein conjugated secondary antibody was added for 1 hour on ice, samples were washed, and analyzed on Guava easyCyte 8HT flow cytometer (Millipore). Isotype matched antibodies were used as negative controls. For cell-based peptide binding assays, cells were incubated with increasing concentrations of fluorescein-conjugated peptides for 2 hours on ice. Samples were washed twice and analyzed on Guava easyCyte 8HT flow cytometer.

Data set [4] concerns the target extracellular HER2 domain (Homo sapiens, UniProt P04626). The settings on record: reported by Berezov et al., recombinant soluble HER2 protein; cited from earlier work.
Data set [5] deals with MCF7 cells (very low HER2 expression). The data set is described as follows: Cellular binding assay, flow cytometry (MCF7). As to conditions: fluorescein labeled peptide, negative control cell line. On the procedure: as §1
Data set [6] can be described thus: MM xenograft mouse model, body weight / systemic toxicity. Type of data set: in vivo, C.B.-17 SCID mice. As to conditions: 1 mg/kg bortezomib equivalent, intravenous, days 1, 4, 8, and 11. How it is done: MM Xenograft Mouse Model. C.B.-17 SCID mice (Harlan Laboratories) were irradiated with 150 rad and were inoculated subcutaneously with 5×10^6 NCI-H929 cells. When tumors were palpable, mice were distributed into 6 groups of 5 mice and were treated intravenously with the various bortezomib pro-drugs, free bortezomib, or vehicle (PBS), on days 1, 4, 8, and 11. Animals were monitored for body weight and tumor volume.
Liposomal Pro-Drugs Inhibit Tumor Growth with Reduced Systemic Toxicity In Vivo. […] Thus, in vivo studies were performed on C.B-17 SCID mice injected with NCI-H929 tumors to evaluate the efficacy of the liposomal pro-drugs in inhibiting tumor growth and limiting toxicity. The mice were divided into six groups (control, free bortezomib, and one group for each pro-drug) of five mice. The mice were monitored for body weight and tumor volume every other day. When the tumors became palpable, intravenous injections of the respective bortezomib formulations at a dose of 1 mg/kg bortezomib equivalent nanoparticles were performed on days 1, 4, 8, and 11.

Entries after “also recorded” stand apart in the source; their conditions may differ. Read-outs that look alike come from different tables or passages of the source.

In the case of YCDPC [VLA4-pep], the values for the Kd in data set [1] (listed as VLA4pep), in data set [1] and in data set [3] were 250 nM, about 250 nM and 250 nM, respectively. Also, the “inhibition of uptake of VLA-4-targeted liposomes by excess free peptide” value in data set [2] (LPVLA4pep(K3)) is listed as “efficient inhibition of uptake”. The “inhibition of uptake of VLA-4-targeted micelles by free peptide” value in data set [2] (micelles with VLA4pep(K3)) is listed as “significant inhibition”.
For the compound YCDGFYACYMDV [HER2-pep], in data set [4], the Kd was 150 nM. The “binding to MCF7 cells” value in data set [5] is given as “minimal binding”.
As to `CC(C)C[C@H](NC(=O)[C@H](Cc1ccccc1)NC(=O)c1cnccn1)B(O)O` [free bortezomib, bortezomib], the “systemic toxicity” value in data set [6] is given as “moribundity on day 7; also recorded: moribundity by day 7”.
